molecular target: T1, human NEP (Homo sapiens, UniProt P08473); assay: In vitro enzyme inhibition assay, inhibitor potency at human NEP; format: biochemical; conditions: pKi values at human NEP; recombinant human NEP, fluorogenic peptide substrate 10 μM, 37° C.
T1 construct: purchased R&D Systems, Minneapolis, Minn; 1182-ZN
Experimental: The inhibitory activities of compounds at human and rat neprilysin (EC 3.4.24.11; NEP) and human angiotensin converting enzyme (ACE) were determined using in vitro assays as described below.
Recombinant human NEP and recombinant human ACE were obtained commercially (R&D Systems, Minneapolis, Minn., catalog numbers 1182-ZN and 929-ZN, respectively). The fluorogenic peptide substrate Mca-D-Arg-Arg-Leu-Dap-(Dnp)-OH (Medeiros et al. (1997) Braz. J. Med. Biol. Res. 30:1157-62; Anaspec, San Jose, Calif.) and Abz-Phe-Arg-Lys(Dnp)-Pro-OH (Araujo et al. (2000) Biochemistry 39:8519-8525; Bachem, Torrance, Calif.) were used in the NEP and ACE assays respectively.
The assays were performed in 384-well white opaque plates at 37° C. using the fluorogenic peptide substrates at a concentration of 10 μM in Assay Buffer (NEP: 50 mM HEPES, pH 7.5, 100 mM NaCl, 0.01% polyethylene glycol sorbitan monolaurate (Tween-20), 10 μM ZnSO4; ACE: 50 mM HEPES, pH 7.5, 100 mM NaCl, 0.01% Tween-20, 1 μM ZnSO4).
Test compounds were assayed over the range of concentrations from […] to 20 μM. Test compounds were added to the enzymes and incubated for 30 minute at 37° C. prior to initiating the reaction by the addition of substrate. Reactions were terminated after 20 minutes of incubation at 37° C. by the addition of glacial acetic acid to a final concentration of 3.6% (v/v).
Plates were read on a fluorometer with excitation and emission wavelengths set to 320 nm and 405 nm, respectively. Inhibition constants were obtained by nonlinear regression of the data using the equation (GraphPad Software, Inc., San Diego, Calif.): v=v0/[1+(I/K′)] where v is the reaction rate, v0 is the uninhibited reaction rate, I is the inhibitor concentration and K′ is the apparent inhibition constant.
Compounds of the invention were tested in this assay and found to have pKi values at human NEP as follows.

T1 sequence (P08473 whole entry): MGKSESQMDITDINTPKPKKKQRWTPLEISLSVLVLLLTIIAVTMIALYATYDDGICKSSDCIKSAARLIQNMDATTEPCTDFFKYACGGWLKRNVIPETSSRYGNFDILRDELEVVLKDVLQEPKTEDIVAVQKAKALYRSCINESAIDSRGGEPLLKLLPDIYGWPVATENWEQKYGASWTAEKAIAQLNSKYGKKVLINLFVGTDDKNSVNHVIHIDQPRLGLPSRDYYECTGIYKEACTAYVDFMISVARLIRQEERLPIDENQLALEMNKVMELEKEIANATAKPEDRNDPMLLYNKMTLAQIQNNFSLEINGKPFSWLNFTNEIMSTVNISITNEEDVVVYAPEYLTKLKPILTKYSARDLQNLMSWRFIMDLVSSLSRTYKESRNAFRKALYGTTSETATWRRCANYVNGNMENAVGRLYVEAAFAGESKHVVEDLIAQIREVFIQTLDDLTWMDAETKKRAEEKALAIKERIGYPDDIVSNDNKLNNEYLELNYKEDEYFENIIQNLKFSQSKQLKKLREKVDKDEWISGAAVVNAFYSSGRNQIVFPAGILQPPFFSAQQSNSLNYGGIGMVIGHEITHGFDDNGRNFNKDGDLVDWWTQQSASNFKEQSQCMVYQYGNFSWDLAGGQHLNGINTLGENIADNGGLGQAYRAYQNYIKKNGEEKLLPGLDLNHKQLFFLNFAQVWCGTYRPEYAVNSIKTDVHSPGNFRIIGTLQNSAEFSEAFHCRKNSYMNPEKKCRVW

Row | Ki [nM] | SMILES
1 | 12.6 to 100 | O=C(N[C@H](Cc1ccccc1)[C@@H](O)C(=O)O)c1ccc(C(=O)O)nc1 [Example 5-20, 5-((1R,2R)-1-Benzyl-2-carboxy-2-hydroxy-ethylcarbamoyl)-pyridine-2-carboxylic acid]
2 | 12.6 to 100 | O=C(O)C[C@@H](Cc1ccccc1Cl)NC(=O)c1cc(F)c2[nH]nnc2c1 [Example 7-6, (R)-4-(2-Chloro-phenyl)-3-[(7-fluoro-1H-benzotriazole-5-carbonyl)-amino]-butyric acid]
3 | 12.6 to 100 | O=C(O)C[C@@H](Cc1ccccc1Cl)NC(=O)c1cc(Cl)c2nn[nH]c2c1 [Example 7-4, (R)-3-[(7-Chloro-3H-benzotriazole-5-carbonyl)-amino]-4-(2-chloro-phenyl)-butyric acid]
4 | 12.6 to 100 | CCCc1nc2c(C)cc(C(=O)N[C@H](Cc3ccccc3)[C@@H](O)C(=O)O)cc2n1Cc1ccc(OC)cc1 [Example 5-7, (2R,3R)-2-Hydroxy-3-{[3-(4-methoxy-benzyl)-7-methyl-2-propyl-3H-benzoimidazole-5-carbonyl]-amino}-4-phenyl-butyric acid]
5 | 12.6 to 100 | O=C(N[C@H](Cc1ccccc1)[C@@H](O)C(=O)O)c1cnc2nn[nH]c2c1 [Example 5-29, (2R,3R)-2-Hydroxy-4-phenyl-3-[(1H-[1,2,3]triazolo[4,5-b]pyridine-6-carbonyl)-amino]-butyric acid]
6 | 12.6 to 100 | O=C(O)C[C@@H](Cc1ccccc1Cl)NC(=O)c1ccc(-c2ccccc2C(=O)O)nn1 [Example 7-9, 2-{6-[(R)-2-Carboxy-1-(2-chloro-benzyl)-ethylcarbamoyl]-pyridazin-3-yl}-benzoic acid]
7 | 12.6 to 100 | O=C(O)C[C@@H](Cc1ccccc1Cl)NC(=O)c1cnc2nn[nH]c2c1 [Example 7-7, (R)-4-(2-Chloro-phenyl)-3-[(1H-[1,2,3]triazolo[4,5-b]pyridine-6-carbonyl)-amino]-butyric acid]
8 | 12.6 to 100 | O=C(N[C@H](Cc1ccccc1)[C@@H](O)C(=O)O)c1cc2cccn2cn1 [Example 5-30, (2R,3R)-2-Hydroxy-4-phenyl-3-[(pyrrolo[1,2-c]pyrimidine-3-carbonyl)-amino]-butyric acid]
9 | 12.6 to 100 | Cc1cc(C(=O)N[C@H](Cc2ccccc2)[C@@H](O)C(=O)O)cc2[nH]nnc12 [Example 5-15, (2R,3R)-2-Hydroxy-3-[(7-methyl-3H-benzotriazole-5-carbonyl)-amino]-4-phenyl-butyric acid]
10 | 12.6 to 100 | CCCc1nc2c(C)cc(C(=O)N[C@H](Cc3ccccc3)[C@@H](O)C(=O)O)cc2n1CC(=O)O [Example 5-5, (2R,3R)-3-[(3-Carboxymethyl-7-methyl-2-propyl-3H-benzoimidazole-5-carbonyl)-amino]-2-hydroxy-4-phenyl-butyric acid]
11 | 12.6 to 100 | O=C(N[C@H](Cc1ccccc1)[C@@H](O)C(=O)O)c1cc(Cl)c2nn[nH]c2c1 [Example 5-13, (2R,3R)-3-[(7-Chloro-3H-benzotriazole-5-carbonyl)-amino]-2-hydroxy-4-phenyl-butyric acid]
12 | 12.6 to 100 | CCc1nc2c(Cl)cc(C(=O)N[C@H](Cc3ccccc3)[C@@H](O)C(=O)O)cc2[nH]1 [Example 5-9, (2R,3R)-3-[(7-Chloro-2-ethyl-3H-benzoimidazole-5-carbonyl)-amino]-2-hydroxy-4-phenyl-butyric acid]
13 | 1.26 to 10 | O=C(N[C@H](Cc1ccccc1)[C@@H](O)C(=O)O)c1cc(-c2ccccc2C(=O)O)ccn1 [Example 5-26, 2-[2-((1R,2R)-1-Benzyl-2-carboxy-2-hydroxy-ethylcarbamoyl)-pyridin-4-yl]-benzoic acid]
14 | 12.6 to 100 | O=C(N[C@H](Cc1ccccc1)[C@@H](O)C(=O)O)c1cnc(-c2ccccc2C(=O)O)cn1 [Example 5-19, 2-[5-((1R,2R)-1-Benzyl-2-carboxy-2-hydroxy-ethylcarbamoyl)-pyrazin-2-yl]-benzoic acid]
15 | 1.26 to 10 | O=C(O)c1ccc(C(=O)N[C@H](Cc2ccccc2)[C@@H](O)C(=O)O)s1 [Example 5-31, 5-((1R,2R)-1-Benzyl-2-carboxy-2-hydroxy-ethylcarbamoyl)-thiophene-2-carboxylic acid]
16 | 1.26 to 10 | O=C(N[C@H](Cc1ccccc1)[C@@H](O)C(=O)O)c1cncc(-c2ccccc2C(=O)O)c1 [Example 5-25, 2-[5-((1R,2R)-1-Benzyl-2-carboxy-2-hydroxy-ethylcarbamoyl)-pyridin-3-yl]-benzoic acid]

The remaining lines, values behind:

Row | SMILES | Ki [nM]
17 | O=C(N[C@H](Cc1ccccc1Cl)[C@H](O)C(=O)O)c1cnn[nH]1 [Example 2-19, (2S,3R)-4-(2-Chloro-phenyl)-2-hydroxy-3-[(3H-[1,2,3]triazole-4-carbonyl)-amino]-butyric acid] | 12.6 to 100
18 | O=C(N[C@H](Cc1ccccc1Cl)[C@@H](O)C(=O)O)c1ccc2ncc(Br)n2c1 [Example 2-33, (2R,3R)-3-[(3-Bromo-imidazo[1,2-a]pyridine-6-carbonyl)-amino]-4-(2-chloro-phenyl)-2-hydroxy-butyric acid] | 12.6 to 100
19 | O=C(N[C@H](Cc1ccccc1Cl)[C@@H](O)C(=O)O)c1nn(Cc2ccc(Cl)cc2F)c(=O)[nH]1 [Example 2-23, (2R,3R)-3-{[1-(4-Chloro-2-fluoro-benzyl)-5-oxo-4,5-dihydro-1H-[1,2,4]triazole-3-carbonyl]-amino}-4-(2-chloro-phenyl)-2-hydroxy-butyric acid] | 12.6 to 100
20 | O=C(N[C@H](Cc1ccccc1Cl)[C@@H](O)C(=O)O)c1cnc(O)c(-c2ccccc2C(=O)O)c1 [Example 2-7, 2-{5-[(1R,2R)-2-Carboxy-1-(2-chloro-benzyl)-2-hydroxy-ethylcarbamoyl]-2-hydroxy-pyridin-3-yl}-benzoic acid] | ≤ 1
21 | O=C(N[C@H](Cc1ccccc1Cl)[C@@H](O)C(=O)O)c1cn(O)nn1 [Example 2-21, (2R,3R)-4-(2-Chloro-phenyl)-2-hydroxy-3-[(1-hydroxy-1H-[1,2,3]triazole-4-carbonyl)-amino]-butyric acid] | 12.6 to 100
22 | O=C(N[C@H](Cc1ccccc1Cl)[C@@H](O)C(=O)O)c1cnc2[nH]cnc2c1 [Example 2-36, (2R,3R)-4-(2-Chloro-phenyl)-2-hydroxy-3-[(3H-imidazo[4,5-b]pyridine-6-carbonyl)-amino]-butyric acid] | 12.6 to 100
23 | O=C(N[C@H](Cc1ccccc1Cl)[C@@H](O)C(=O)O)c1cc(O)no1 [Example 2-11, (2R,3R)-4-(2-Chloro-phenyl)-2-hydroxy-3-[(3-hydroxy-isoxazole-5-carbonyl)-amino]-butyric acid] | 1.26 to 10
24 | O=C(N[C@H](Cc1ccccc1Cl)[C@H](O)C(=O)O)c1cc(Cl)c2nn[nH]c2c1 [Example 2-28, (2S,3R)-3-[(7-Chloro-3H-benzotriazole-5-carbonyl)-amino]-4-(2-chloro-phenyl)-2-hydroxy-butyric acid] | 1.26 to 10
25 | Cc1cc(C(=O)N[C@H](Cc2ccccc2Cl)[C@H](O)C(=O)O)cc2[nH]nnc12 [Example 2-30, (2S,3R)-4-(2-Chloro-phenyl)-2-hydroxy-3-[(7-methyl-3H-benzotriazole-5-carbonyl)-amino]-butyric acid] | 12.6 to 100
26 | O=C(N[C@H](Cc1ccccc1Cl)[C@@H](O)C(=O)O)c1cnc2nn[nH]c2c1 [Example 2-37, (2R,3R)-4-(2-Chloro-phenyl)-2-hydroxy-3-[(1H-[1,2,3]triazolo[4,5-b]pyridine-6-carbonyl)-amino]-butyric acid] | 1.26 to 10
27 | O=C(O)c1ccc(C(=O)N[C@H](Cc2ccccc2Cl)[C@@H](O)C(=O)O)o1 [Example 2-32, 5-[(1R,2R)-2-Carboxy-1-(2-chloro-benzyl)-2-hydroxy-ethylcarbamoyl]-furan-2-carboxylic acid] | 12.6 to 100
28 | O=C(O)C[C@@H](Cc1ccccc1Cl)NC(=O)c1cc(-c2ccccc2C(=O)O)ccn1 [Example 6, 2-{2-[(R)-1-Carboxymethyl-2-(2-chloro-phenyl)-ethylcarbamoyl]-pyridin-4-yl}-benzoic Acid] | 1.26 to 10
29 | O=C(N[C@H](Cc1ccccc1Cl)[C@H](O)C(=O)O)c1ccc2nn[nH]c2c1 [Example 2-29, (2S,3R)-3-[(3H-Benzotriazole-5-carbonyl)-amino]-4-(2-chloro-phenyl)-2-hydroxy-butyric acid] | 12.6 to 100
30 | O=C(N[C@H](Cc1ccccc1Cl)[C@@H](O)C(=O)O)c1cc2n(n1)COc1ccccc1-2 [Example 2-24, (2R,3R)-4-(2-Chloro-phenyl)-2-hydroxy-3-[(5-oxa-3,3a-diazacyclopenta[a]naphthalene-2-carbonyl)-amino]-butyric acid] | 1.26 to 10
31 | O=C(N[C@H](Cc1ccccc1Cl)[C@@H](O)C(=O)O)c1cc(C(=O)O)c2[nH]nnc2c1 [Example 2-31, 6-[(1R,2R)-2-Carboxy-1-(2-chloro-benzyl)-2-hydroxy-ethylcarbamoyl]-3H-benzotriazole-4-carboxylic acid] | 12.6 to 100

From patent publication US9771337B2, “Neprilysin inhibitors” (THERAVANCE BIOPHARMA R&D IP, LLC, priority 2011, dated 2017)
